What was measured:
[1] = tested on: MCF-7 human breast cancer cells; experiment: MTT cytotoxicity, 72 h; format: cell-based; conditions: platinum complexes
Experimental: (§1) Cytotoxic activity of the compounds tested in the present work was screened on the panel of malignant and nonmalignant cell lines using the colorimetric MTT assay and 72 h of drug incubation period.
(§2) Cell death was evaluated using a system based on the tetrazolium compound MTT [3-(4,5-dimethyl-2-thiazolyl)-2,5-diphenyl-2H-tetrazolium bromide]. The cells were seeded in 96-well tissue culture plates at a density of 10^4 A2780cisR, LNCaP, HSF cells/well, 3 × 10^3 CHO-K1 or 4 × 10^3 MCF7, HCT-116 and MRC5 pd30 cells/well in 100 μL of medium. After overnight incubation (16 h), the cells were treated with the compounds in a final volume of 200 μL/well. After additional 72 h, 10 μL of a freshly diluted MTT solution (2.5 mg mL^−1) was added to each well, and the plate was incubated at 37 °C in a humidified 5% CO2 atmosphere for 4 h. At the end of the incubation period, the medium was removed, and the formazan product was dissolved in 100 μL of DMSO. The cell viability was evaluated by measurement of the absorbance at 570 nm, using an Absorbance Reader SUNRISE TECAN SCHOELLER. IC50 values were calculated from curves constructed by plotting cell survival (%) versus drug concentration (μM). All experiments were made in triplicate. The reading values were converted to the percentage of control (% cell survival). Cytotoxic effects were expressed as IC50.

[2] = tested on: A2780cisR human ovarian carcinoma cells; experiment: MTT cytotoxicity, 72 h; format: cell-based; conditions: for RF, resistance factor: IC50 (resistant, A2780cisR)/IC50 (sensitive, A2780); for IC50: MTT, 72 h, platinum complexes
Experimental: as §1, §2

[3] = tested on: CHO-K1 Chinese hamster ovary cells; experiment: MTT cytotoxicity, 72 h; format: cell-based; conditions: platinum complexes
Experimental: as §1, §2

[4] = tested on: HCT-116 human colorectal carcinoma cells; experiment: MTT cytotoxicity, 72 h; format: cell-based; conditions: for IC50: MTT, 72 h, platinum complexes and decitabine
Experimental: as §1, §2

A2780 cells = experiment: Pt accumulation in A2780 cells with and without serum, BSA or lipoproteins; format: cell-based, human; conditions: A2780, 10 μM, 4 h
Experimental: Interactions with serum proteins
The trends observed in the results of the in vivo antitumor activity experiments, such as the tissue biodistribution (Fig. S2A), blood levels (Fig. S2B), and cellular accumulation (Table 2) of Pt(IV) complexes could be also related to their sequestration by plasma proteins, mainly by 8 human serum albumin . Thus, the accumulation experiments in cellulo were carried out employing A2780 cells without serum (and therefore without BSA) in the culture medium. As shown in Fig. S3, when passing from the treatment in complete medium (+FBS) to the […]
Supplementary Figure S3: Pt accumulation in A2780 cells treated with Pt(IV) prodrugs […]
treatment in complete medium (+FBS) and in serum-free medium (- FBS). Data are means of at least three replicates and were tested using the two sample t-test (***p<0.001). […]
medium supplemented with 10% FBS contains 30 µM BSA, which is known to transport octanoate9,10, and 300 μg mL-1 cholesterol in the most lipophilic component, i.e. lipoproteins11, which are known to transport lipophilic drugs12,13. To verify whether the accumulation of Pt(IV)diOA could be mainly affected by BSA or lipoproteins, the experiments were repeated in serum-free medium supplemented with BSA (-FBS, + BSA) or LPC, lipoprotein-rich cholesterol (-FBS + LPC), respectively (see experimental part). As […]
(1 picture or pasted object on this page, not shown here)
(control, -FBS), in serum-free medium supplemented with 30 µM BSA (-FBS, + BSA), with lipoproteins (-FBS + LPC), and in complete medium (+FBS). Data are means of at least three replicates and were tested using the two sample t-test (***p<0.001). […]
Co.) and transferred into a microwave Teflon vessel. Subsequently, samples were submitted to the standard procedure using a speed microwave. After cooling, each mineralized sample was analyzed for platinum by ICP-MS (ThermoOptek X Series 2). Instrumental settings were optimized to achieve maximum sensitivity for platinum. For quantitative determination, the most abundant isotopes of platinum and indium (used as internal standard) were measured at m/z 195 and 115, respectively.
Accumulation of platinum in tumor cells treated with Pt(IV) complexes and cisplatin (in cellulo experiments) in the absence of serum. A2780 cells were seeded in 10 mm Petri dishes and treated with the platinum complexes (10 μM) for 4 h in complete medium, i.e. + 10 % FBS (HyClone, GE Healthcare). At time zero, 100 μL of medium was taken out from each sample to check the extracellular Pt concentration. […]
The level of Pt found in cells after drug treatment and normalized 6 upon the cell number (cellular Pt accumulation) was expressed as ng Pt per 10 cells. […]

| Compound | IC50 [1] | RF, resistance factor [2] | IC50 [2] | IC50 [3] | IC50 [4] | Change of Pt accumulation from complete medium (+FBS) to serum-free medium (-FBS) (A2780 cells) | Effect of BSA addition to serum-free medium on Pt accumulation (A2780 cells; -FBS + BSA) | Effect of LPC (lipoprotein-rich cholesterol) supplementation of serum-free medium on Pt accumulation (A2780 cells; -FBS + LPC) | Increase of cytotoxicity vs. cisplatin ([4]; HCT-116, Fig. 2B) | Increase of cytotoxicity vs. Pt(IV)diAc ([4]; HCT-116, Fig. 2D) |
| --- | --- | --- | --- | --- | --- | --- | --- | --- | --- | --- |
| CC(=O)[O][Pt]([NH2])([NH2])([Cl])([Cl])[O]C(C)=O [Pt(IV)diAc, cis, cis, trans-[Pt(IV)(NH3)2Cl2(Ac)2]] | 51 ± 4 µM | 4.2 | 22 ± 3.1 µM | 14.5 ± 0.7 µM | 35.3 ± 1.4 µM | – | – | – | – | – |
| CCCCCCCC(=O)[O][Pt]([NH2])([NH2])([Cl])([Cl])[O]C(=O)CCCCCCC [Pt(IV)diOA, cis, cis, trans-[Pt(IV)(NH3)2Cl2(OA)2]] | 0.038 ± 0.006 µM | 0.7 | 0.029 ± 0.002 µM | 0.14 ± 0.02 µM | 0.017 ± 0.003 µM | 3 fold | negligible effect | decreased Pt accumulation | 347 x | 2076 x |
| CCCC(CCC)C(=O)[O][Pt]([NH2])([NH2])([Cl])([Cl])[O]C(=O)C(CCC)CCC [Pt(IV)diVPA, cis, cis, trans-[Pt(IV)(NH3)2Cl2(VPA)2]] | – | – | – | – | – | no significant change | – | – | – | – |
| N.N.[Cl][Pt][Cl] [cisplatin, reference compound] | 17.4 ± 1.9 µM | 4.9 | 13.8 ± 0.1 µM | 19.9 ± 1 µM | 5.9 ± 0.9 µM | – | – | – | – | – |
